Where two headings read alike, the source gives them in different places.
Assays:
[1] = system: maize (ZEAMX); assay: Greenhouse postemergence trial, crop phytotoxicity (% visual injury); conditions: for % visual injury Obs: crop, 5 g ae/ha alone, 20-22 d
[2] = system: common rice (ORYSA); assay: as above; conditions: for % visual injury, Obs: ORYSA
[3] = system: winter wheat (TRZAW); assay: as above; conditions: for % visual injury, Obs: TRZAW; for % visual injury Obs: crop, 5 g ae/ha alone, 20-22 d
[4] = system: sunflower (Helianthus annus, HELAN); assay: Greenhouse postemergence trial, % visual injury; type: in vivo; conditions: for % visual injury Obs: 5 g ae/ha alone, 20-22 d
[5] = system: wild pansy (Viola tricolor, VIOTR); assay: Greenhouse postemergence trial, % visual injury; conditions: for % visual injury, Obs: VIOTR; for pest or weed control at 5 g/ha: Viola tricolor, post-emergence, read-out: % visual injury Obs
[6] = system: spring rape (Brassica napus, BRSNN); assay: Greenhouse postemergence trial, % visual injury; conditions: Brassica napus, post-emergence; for plant injury at 5 g/ha: read-out: % visual injury Obs
[7] = system: ivyleaf morningglory (Ipomoea hederacea, IPOHE); assay: Greenhouse postemergence trial, % visual injury
[8] = system: velvetleaf (Abutilon theophrasti, ABUTH); assay: Greenhouse postemergence trial, % visual injury; type: in vivo; conditions: for % visual injury Obs: 5 g ae/ha alone, 20-22 d
[9] = system: nutsedge (Cyperus esculentus, CYPES); assay: Greenhouse postemergence trial, % visual injury; type: in vivo; conditions: for pest or weed control at 5 g/ha: Cyperus, post-emergence, 5 g ae/ha alone, 20-22 d, read-out: % visual injury Obs
[10] = system: Canadian thistle (CIRAR, Cirsium arvense); assay: Greenhouse postemergence trial, % visual injury; conditions: for pest or weed control at 400 g/ha / pest or weed control at 5 g/ha: Cirsium arvense, post-emergence; for % visual injury, Obs: CIRAR; for pest or weed control at 5 g/ha: read-out: % visual injury Obs;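 as to all read-outs here: plants sprayed at second to third true leaf stage, injury scored visually 20-22 d later against solvent-blank sprayed controls, 0 meaning no injury and 100 complete kill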
[11] = system: kochia (KCHSC, Kochia scoparia); assay: Greenhouse postemergence trial, % visual injury; type: in vivo
Experimental: Following the protocol in Example 1, compound 1 and compound 2 were combined with 2,4 D EHE (EC) and applied to kochia (KCHSC, Kochia scoparia) and the phytotoxicity of the herbicidal compositions was measured.
Following the protocol in Example 1, compound 1 (EC) and Compound 2 (SC) were combined with diflufenzopyr and applied to kochia (Kochia scoparia, KCHSC) and the phytotoxicity of the herbicidal composition was measured.

[12] = system: wild buckwheat (Polygonum convolvulus, POLCO); assay: Greenhouse postemergence trial, % visual injury; type: in vivo; conditions: for % visual injury Obs: 5 g ae/ha alone, 20-22 d
[13] = system: poinsettia (Euphorbia heterophylla, EPHHL); assay: Greenhouse postemergence trial, % visual injury; conditions: for pest or weed control at 5 g/ha: read-out: % visual injury Obs, 5 g ae/ha alone, 20-22 d
[14] = system: common chickweed (Stellaria media, STEME); assay: Greenhouse postemergence trial, % visual injury; type: in vivo; conditions: for % visual injury Obs: 5 g ae/ha alone, 20-22 d
[15] = system: pigweed (AMARE, Amaranthus retroflexus); assay: Greenhouse postemergence trial, % visual injury; type: in vivo; conditions: Amaranthus retroflexus, post-emergence; 5 g ae/ha alone; 20-22 d; read-out: % visual injury Obs
[16] = system: grain sorghum (Sorghum vulgare, SORVU); assay: Greenhouse postemergence trial, % visual injury; type: in vivo; conditions: for % visual injury Obs: 5 g ae/ha alone, 20-22 d
[17] = system: common lambsquarters (CHEAL, Chenopodium album L.); assay: Greenhouse postemergence trial, % visual injury; type: in vivo; conditions: Chenopodium album, post-emergence; 5 g ae/ha alone; 20-22 d; read-out: % visual injury Obs
[18] = read-out: % visual injury (Obs)
[19] = Euphorbia heterophylla, post-emergence

| SMILES | % visual injury Obs [3] [%] | pest or weed control at 5 g/ha [5] [%] | pest or weed control at 5 g/ha [13, 19] [%] | plant injury at 5 g/ha [6] [%] | % visual injury Obs [14] [%] | % visual injury Obs [8] [%] | pest or weed control at 5 g/ha [10] [%] | % visual injury Obs [1] [%] | % visual injury Obs [12] [%] | pest or weed control at 5 g/ha [9] [%] | % visual injury Obs [16] [%] | also measured |
| --- | --- | --- | --- | --- | --- | --- | --- | --- | --- | --- | --- | --- |
| O=C(O)COc1ccc(Cl)cc1Cl [2,4-D DMA, 2,4-D-dimethylammonium] | – | – | – | – | – | – | – | – | – | – | – | % visual injury (Obs) ([1]; 2,4-D DMA 400 g ae/ha): 0%; % visual injury (Obs) ([2]; 2,4-D DMA 400 g ae/ha): 0%; % visual injury (Obs) ([3]; 2,4-D DMA 400 g ae/ha): 0%; % visual injury (Obs) ([4]; 2,4-D DMA 400 g ae/ha): 80%; % visual injury (Obs) ([5]; 2,4-D DMA 400 g ae/ha): 65%; plant injury at 400 g/ha [6, 18]: 85%; % visual injury (Obs) ([7]; 2,4-D DMA 400 g ae/ha): 80%; % visual injury (Obs) ([8]; 2,4-D DMA 400 g ae/ha): 75%; % visual injury (Obs) ([9]; 2,4-D DMA 400 g ae/ha): 30%; pest or weed control at 400 g/ha ([10]; read-out: % visual injury (Obs), 2,4-D DMA 400 g ae/ha): 70%; % visual injury (Obs) ([11]; 2,4-D DMA 400 g ae/ha): 10% |
| O=C(O)CCCOc1ccc(Cl)cc1Cl [2,4-DB DMA, 4-DB-dimethylammonium (2,4-DB DMA)] | – | – | – | – | – | – | – | – | – | – | – | % visual injury (Obs) ([1]; 2,4-DB DMA 400 g ae/ha): 0%; % visual injury (Obs) ([12]; 2,4-DB DMA 400 g ae/ha): 60%; % visual injury (Obs) ([2]; 2,4-DB DMA 400 g ae/ha): 0%; % visual injury (Obs) ([3]; 2,4-DB DMA 400 g ae/ha): 10%; % visual injury (Obs) ([13]; 2,4-DB DMA 400 g ae/ha): 10%; plant injury at 400 g/ha [6, 18]: 70%; % visual injury (Obs) ([7]; 2,4-DB DMA 400 g ae/ha): 70%; % visual injury (Obs) ([9]; 2,4-DB DMA 400 g ae/ha): 0%; pest or weed control at 400 g/ha ([10]; read-out: % visual injury (Obs), 2,4-DB DMA 400 g ae/ha): 40%; % visual injury (Obs) ([11]; 2,4-DB DMA 400 g ae/ha): 10% |
| Cc1cc(Cl)ccc1OCC(=O)O [MCPA DMA, MCPA-dimethylammonium] | – | – | – | – | – | – | – | – | – | – | – | % visual injury, Obs ([2]; 400 g ae/ha): 0%; % visual injury, Obs ([3]; 400 g ae/ha): 0%; % visual injury, Obs ([5]; 400 g ae/ha): 30%; plant injury at 400 g/ha ([6]; read-out: % visual injury, Obs): 95%; % visual injury, Obs ([14]; STEME, 400 g ae/ha): 20%; % visual injury, Obs ([10]; 400 g ae/ha): 65% |
| COC(=O)c1nc(-c2ccc3scnc3c2)c(F)c(N)c1Cl [compound 8] | 5 | 10 | 84 | 63 | 45 | 20 | 30 | – | – | – | – | pest or weed control at 5 g/ha [15]: 78% |
| COC(=O)c1nc(-c2ccc3sccc3c2)c(F)c(N)c1Cl [compound 9] | 0 | 15 | 60 | 10 | – | – | 10 | 0 | 25 | 0 | – | – |
| Nc1c(F)c(-c2ccc3ccoc3c2)nc(C(=O)O)c1Cl [compound 10] | 5 | 25 | 75 | 15 | 70 | 15 | 15 | – | 10 | 5 | 5 | – |
| COc1c(N)nc(-c2ccc3sccc3c2)nc1C(=O)O [compound 11] | 10 | 10 | 25 | 10 | 40 | – | 5 | – | 10 | 0 | 5 | – |
| COC(=O)c1nc(-c2ccc3ccoc3c2F)nc(N)c1OC [compound 12] | 0 | 18 | 35 | 50 | – | 10 | 10 | 0 | – | 5 | 0 | pest or weed control at 5 g/ha [17]: 84% |
| COC(=O)c1nc(-c2ccc3cc[nH]c3c2F)c(F)c(/N=C/N(C)C)c1Cl [compound 13] | – | 25 | 75 | – | 50 | 0 | 10 | – | 25 | 0 | – | pest or weed control at 5 g/ha [17]: 60% |
| Nc1c(F)c(-c2cc(F)c3[nH]ccc3c2)nc(C(=O)O)c1Cl [compound 14] | 0 | 10 | 20 | 10 | – | 0 | 5 | 0 | – | – | 0 | % visual injury Obs [4]: 10%; pest or weed control at 5 g/ha [17]: 15% |
| C=C(F)c1c(C(=O)O)nc(-c2ccc3cc[nH]c3c2F)c(F)c1N [compound 15] | 5 | 33 | 73 | – | – | 30 | 15 | 0 | 30 | 25 | 0 | % visual injury Obs [4]: 90% |
| C/C(=N\NC(=O)Nc1cc(F)cc(F)c1)c1ncccc1C(=O)O [diflufenzopyr] | – | – | – | – | – | – | – | – | – | – | – | % visual injury, Obs. ([11]; KCHSC, diflufenzopyr 3.5 g ae/ha, Table 60): 0%; % visual injury, Obs. ([11]; KCHSC, diflufenzopyr 3.5 g ae/ha, Table 61): 0%; % visual injury, Obs. ([11]; KCHSC, diflufenzopyr 7 g ae/ha, Table 60): 0%; % visual injury, Obs. ([11]; KCHSC, diflufenzopyr 7 g ae/ha, Table 61): 0% |
| Nc1c(Cl)c(Cl)nc(C(=O)O)c1Cl [picloram-potassium, reference compound] | – | – | – | – | – | – | – | – | – | – | – | % visual injury, Obs ([1]; ZEAMX, 10 g ae/ha): 0%; % visual injury, Obs ([2]; 10 g ae/ha): 0%; % visual injury, Obs ([3]; 10 g ae/ha): 0%; % visual injury, Obs ([5]; 10 g ae/ha): 0%; pest or weed control at 10 g/ha ([13]; Euphorbia heterophylla, post-emergence, read-out: % visual injury, Obs, EPHHL, 10 g ae/ha): 20%; plant injury at 10 g/ha ([6]; read-out: % visual injury, Obs): 20%; pest or weed control at 10 g/ha ([7]; Ipomoea, post-emergence, read-out: % visual injury, Obs, IPOHE, 10 g ae/ha): 40%; % visual injury, Obs ([16]; SORVU, 10 g ae/ha): 0%; pest or weed control at 10 g/ha ([8]; Abutilon theophrasti, post-emergence, ABUTH, 10 g ae/ha, read-out: % visual injury, Obs): 35%; % visual injury, Obs ([9]; CYPES, 10 g ae/ha): 0%; % visual injury, Obs ([10]; 10 g ae/ha): 60%; pest or weed control at 10 g/ha ([11]; Bassia scoparia, post-emergence, KCHSC, 10 g ae/ha, read-out: % visual injury, Obs): 0% |

Reference: patent US9521847B2, “Synergistic weed control from applications of pyridine carboxylic acid herbicides and synthetic auxin herbicides and/or auxin transport inhibitors” (Dow AgroSciences LLC, priority 2014, dated 2016)
